Results on 26 compounds are retold here after patent US20250263400A1, “GCN2 MODULATOR COMPOUNDS” (Alesta Therapeutics BV, priority 2022, published 2025).

As usually defined, the IC50 is the point on the concentration scale where inhibition reaches its midpoint.

Structures are written as SMILES.

GCN2, sequence (Q9P2K8 whole entry, species assumed): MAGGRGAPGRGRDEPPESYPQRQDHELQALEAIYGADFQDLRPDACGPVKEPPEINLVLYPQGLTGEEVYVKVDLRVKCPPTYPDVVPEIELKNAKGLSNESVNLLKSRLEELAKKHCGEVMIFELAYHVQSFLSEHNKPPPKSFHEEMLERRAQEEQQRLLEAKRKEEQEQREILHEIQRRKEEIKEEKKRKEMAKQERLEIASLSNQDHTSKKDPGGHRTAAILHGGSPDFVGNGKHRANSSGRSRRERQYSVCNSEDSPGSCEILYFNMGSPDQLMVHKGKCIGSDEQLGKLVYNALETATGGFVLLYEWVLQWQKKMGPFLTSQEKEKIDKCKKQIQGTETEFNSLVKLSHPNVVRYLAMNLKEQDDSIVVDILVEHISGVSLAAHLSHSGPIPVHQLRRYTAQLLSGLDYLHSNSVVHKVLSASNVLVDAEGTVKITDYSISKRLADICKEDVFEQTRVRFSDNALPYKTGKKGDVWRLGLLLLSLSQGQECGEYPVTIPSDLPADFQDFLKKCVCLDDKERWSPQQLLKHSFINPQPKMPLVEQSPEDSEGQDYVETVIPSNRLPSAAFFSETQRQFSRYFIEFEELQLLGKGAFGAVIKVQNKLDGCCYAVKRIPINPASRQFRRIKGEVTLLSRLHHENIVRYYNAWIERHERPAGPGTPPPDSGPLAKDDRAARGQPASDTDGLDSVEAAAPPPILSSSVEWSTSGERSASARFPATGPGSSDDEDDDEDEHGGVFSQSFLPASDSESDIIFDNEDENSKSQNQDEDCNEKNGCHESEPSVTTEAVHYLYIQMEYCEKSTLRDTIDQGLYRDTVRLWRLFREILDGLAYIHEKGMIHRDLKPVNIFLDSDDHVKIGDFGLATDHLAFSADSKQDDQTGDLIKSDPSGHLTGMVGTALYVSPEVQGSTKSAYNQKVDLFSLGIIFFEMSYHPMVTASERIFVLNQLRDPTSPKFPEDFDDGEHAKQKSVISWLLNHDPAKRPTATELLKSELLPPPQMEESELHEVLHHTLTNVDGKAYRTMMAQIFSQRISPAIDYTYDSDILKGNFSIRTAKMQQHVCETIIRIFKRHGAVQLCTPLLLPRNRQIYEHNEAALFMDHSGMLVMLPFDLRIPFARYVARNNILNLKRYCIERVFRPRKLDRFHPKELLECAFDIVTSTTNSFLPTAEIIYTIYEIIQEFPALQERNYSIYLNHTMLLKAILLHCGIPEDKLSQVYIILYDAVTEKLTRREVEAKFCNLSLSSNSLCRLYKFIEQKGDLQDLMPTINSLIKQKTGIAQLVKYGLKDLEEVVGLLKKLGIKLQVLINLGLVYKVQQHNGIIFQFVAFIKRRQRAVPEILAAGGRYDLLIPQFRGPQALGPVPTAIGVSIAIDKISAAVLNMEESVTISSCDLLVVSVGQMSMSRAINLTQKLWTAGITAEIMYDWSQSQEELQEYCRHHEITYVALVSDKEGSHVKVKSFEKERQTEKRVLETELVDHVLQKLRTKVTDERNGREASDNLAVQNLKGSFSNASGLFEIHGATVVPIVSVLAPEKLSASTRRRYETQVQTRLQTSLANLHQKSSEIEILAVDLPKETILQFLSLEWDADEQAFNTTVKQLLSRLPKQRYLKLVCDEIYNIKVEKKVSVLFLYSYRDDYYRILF

The target of this test is GCN2 (Homo sapiens (Human), UniProt Q9P2K8). Nature of the test: GCN2 enzyme assay. It is filed as biochemical. As for the experimental part:
For GCN2 enzyme assays, testing compounds were prepared at proper concentrations in DMSO solution. IC50 values were calculated from a remaining activity using read conversion ratio.
As to `COCCNC(=O)N1CC[C@@H](Nc2ncc3cc(-c4c(F)ccc(NS(=O)(=O)c5cc(Cl)cc(CO)c5Cl)c4F)ccc3n2)C1` [Compound 1, (R)-3-((6-(3-((2,5-dichloro-3-(hydroxymethyl)phe-nyl)sulfonamido)-2,6-difluorophenyl)quina-zolin-2-yl)amino)-N-(2-methoxyethyl)pyr-rolidine-1-carboxamide], the IC50 is 10.4 nM.
In the case of `COCCNC[C@@H]1CC[C@@H](Nc2ncc3cc(-c4c(F)ccc(NS(=O)(=O)c5cc(Cl)cc(CO)c5Cl)c4F)ccc3n2)C1` [Compound 2, 2,5-dichloro-N-(2,4-difluoro-3-(2-(((1R,3R)-3-(((2-methoxyethyl)ami-no)methyl)cyclopent-yl)amino)quina-zolin-6-yl)phenyl)-3-(hydroxymethyl)ben-zenesulfonamide] it was 2.63 nM.
In the case of `COCCNC(=O)[C@H]1C[C@H](Nc2ncc3cc(-c4c(F)ccc(NS(=O)(=O)c5cc(Cl)cc(CO)c5Cl)c4F)ccc3n2)CN1` [Compound 3, (2R,4S)-4-((6-(3-((2,5-dichloro-3-(hydroxymethyl)phe-nyl)sulfonamido)-2,6-difluorophenyl)quin-zolin-2-yl)amino)-N-(2-methoxyethyl)pyr-rolidine-2-carboxamide] it was 5.43 nM; in that of `CN(C)CCNC(=O)[C@H]1CC[C@H](Nc2ncc3cc(-c4c(F)ccc(NS(=O)(=O)c5cc(Cl)cc(CO)c5Cl)c4F)ccc3n2)CC1` [Compound 4, (1R,4R)-4-((6-(3-((2,5-dichloro-3-(hydroxymethyl)phe-nyl)sulfonamido)-2,6-difluorophenyl)quina-zolin-2-yl)amino)-N-(2-(dimethylamino)eth-yl)cyclohexane-1-carboxamide], 3.94 nM.
In the case of `COCCNC(=O)N1CC[C@@H](Nc2ncc3cc(-c4c(F)ccc(NS(=O)(=O)c5cc(Cl)cnc5OC)c4F)ccc3n2)C1` [Compound 5, (R)-3-((6-(3-((5-chloro-2-methoxypyridine)-3-sulfonamido)-2,6-difluorophenyl)quina-zolin-2-yl)amino)-N-(2-methoxyethyl)pyr-rolidine-1-carboxamide] it was 11.4 nM.
Consider `Cc1ncc(Cl)cc1S(=O)(=O)Nc1ccc(F)c(-c2ccc3nc(N[C@H]4CC[C@H](N(C)C)CC4)ncc3c2)c1F` [Compound 6, 5-chloro-N-(3-(2-(((1R,4R)-4-(dimethylamino)cy-clohexyl)amino)quinazolin-6-yl)-2,4-difluorophenyl)-2-methylpyridine-3-sulfonamide], for which it took 3.36 nM to reach half-maximal inhibition (IC50).
With `COCCNC[C@@H]1CCC(Nc2ncc3cc(-c4c(Cl)ccc(NS(=O)(=O)c5cc(Cl)cnc5OC)c4Cl)ccc3n2)C1` (stereo partly drawn) [Compound 7, 5-chloro-N-(2,4-dichloro-3-(2-(((1R,3R)-3-(((2-methoxyethyl)ami-no)methyl)cyclopent-yl)amino)quina-zolin-6-yl)phenyl)-2-methoxypyridine-3-sulfonamide] the figure was 12.6 nM; with `NC(=O)[C@@H]1CC[C@@H](Nc2ncc3cc(-c4c(F)ccc(NS(=O)(=O)c5cc(Cl)cc(CO)c5Cl)c4F)ccc3n2)C1` [Compound 11, (1R,3R)-3-((6-(3-((2,5-dichloro-3-(hydroxymethyl)phe-nyl)sulfonamido)-2,6-difluorophenyl)quina-zolin-2-yl)amino)cyclopent-ane-1-carboxamide], 2.12 nM.
With `O=S1(=O)CCC(Nc2ncc3cc(-c4c(F)ccc(NS(=O)(=O)c5cc(Cl)cc(CO)c5Cl)c4F)ccc3n2)C1` (centres unmarked) [Compound 12, 2,5-dichloro-N-(3-(2-((1,1-dioxidotetrahydro-thiophen-3-yl)amino)quinazo-lin-6-yl)-2,4-difluorophenyl)-3-(hydroxymethyl)ben-zenesulfonamide] the figure was 7.62 nM; with `COCCNC[C@@H]1CC[C@@H](Nc2ncc3cc(-c4c(F)ccc(NS(=O)(=O)c5cc(Cl)cnc5OC)c4F)ccc3n2)C1` [Compound 13, 5-chloro-N-(2,4-difluoro-3-(2-(((1R,3R)-3-(((2-methoxyethyl)ami-no)methyl)cyclopent-yl)amino)quina-zolin-6-yl)phenyl)-2-methoxypyridine-3-sulfonamide], 3.96 nM.
In the case of `COc1ncc(Cl)cc1S(=O)(=O)Nc1ccc(F)c(-c2ccc3nc(N[C@@H]4CC[C@@H](C(N)=O)C4)ncc3c2)c1F` [Compound 14, (1R,3R)-3-((6-(3-((5-chloro-2-methoxypyridine)-3-sulfonamido)-2,6-difluorophenyl)quinaz-zolin-2-yl)amino)cyclopent-ane-1-carboxamide 2,2,2-trifluoroacetate] it was 3.39 nM.
Regarding `COCCNC(=O)[C@H]1C[C@H](Nc2ncc3cc(-c4c(F)ccc(NS(=O)(=O)c5cc(Cl)cnc5OC)c4F)ccc3n2)CN1` [Compound 15, (2R,4S)-4-((6-(3-((5-chloro-2-methoxypyridine)-3-sulfonamido)-2,6-difluorophenyl)quina-zolin-2-yl)amino)-N-(2-methoxyethyl)pyr-rolidine-2-carboxamide], half-maximal inhibition (IC50) was put at 4.18 nM.
In turn, `COc1ncc(Cl)cc1S(=O)(=O)Nc1ccc(Cl)c(-c2ccc3nc(N[C@@H]4CC[C@@H](C(N)=O)C4)ncc3c2)c1Cl` [Compound 16, (1R,3R)-3-((6-(2,6-dichloro-3-((5-chloro-2-methoxypyridine)-3-sulfonamido)phenyl)quinazolin-2-yl)amino)cyclopent-ane-1-carboxamide] had an IC50 of 11.7 nM.
In the case of `COCCNC(=O)[C@H]1C[C@H](Nc2ncc3cc(-c4c(Cl)ccc(NS(=O)(=O)c5cc(Cl)cnc5OC)c4Cl)ccc3n2)CN1` [Compound 17, (2R,4S)-4-((6-(2,6-dichloro-3-((5-chloro-2-methoxypyridine)-3-sulfonamido)phenyl)quinazolin-2-yl)amino)-N-(2-methoxyethyl)pyr-rolidine-2-carboxamide] it was 9.17 nM.
In the case of `COCCNC(=O)N1CC[C@@H](Nc2ncc3cc(-c4c(Cl)ccc(NS(=O)(=O)c5cc(Cl)cnc5OC)c4Cl)ccc3n2)C1` [Compound 18] it was 41.6 nM; in that of `COCCNC(=O)[C@H]1CC[C@H](Nc2ncc3cc(-c4c(F)ccc(NS(=O)(=O)c5cc(Cl)cnc5OC)c4F)ccc3n2)CC1` [Compound 20, (1R,4R)-4-((6-(3-((5-chloro-2-methoxypyridine)-3-sulfonamido)-2,6-difluorophenyl)quina-zolin-2-yl)amino)-N-(2-methoxyethyl)cyclo-hexane-1-carboxamide], 10.2 nM; in that of `COCCNC(=O)[C@H]1CC[C@H](Nc2ncc3cc(-c4c(Cl)ccc(NS(=O)(=O)c5cc(Cl)cnc5OC)c4Cl)ccc3n2)CC1` [Compound 21, (1R,4R)-4-((6-(2,6-dichloro-3-((5-chloro-2-methoxypyridine)-3-sulfonamido)phenyl)quinazolin-2-yl)amino)-N-(2-methoxyethyl)cyclo-hexane-1-carboxamide], 31.9 nM.
As for `COc1ncc(Cl)cc1S(=O)(=O)Nc1ccc(F)c(-c2ccc3nc(NC4CCS(=O)(=O)C4)ncc3c2)c1F` (centres unmarked) [Compound 23, 5-chloro-N-(3-(2-((1,1-dioxidotetrahydro-thiophen-3-yl)amino)quinazo-lin-6-yl)-2,4-difluorophenyl)-2-methoxypyridine-3-sulfonamide], half-maximal inhibition (IC50) was put at 6.66 nM.
`COc1ncc(Cl)cc1S(=O)(=O)Nc1ccc(Cl)c(-c2ccc3nc(NC4CCS(=O)(=O)C4)ncc3c2)c1Cl` (centres unmarked) [Compound 27, 5-chloro-N-(2,4-dichloro-3-(2-((1,1-dioxidotetrahydro-thiophen-3-yl)amino)quinazo-lin-6-yl)phenyl)-2-methoxypyridine-3-sulfonamide]: half-maximal inhibition (IC50) required 25.3 nM.
With `CCc1cc(-c2c(Cl)cnc(NS(=O)(=O)c3cc(Cl)cc(CO)c3Cl)c2Cl)cc2cnc(N)nc12` [Compound 35, N-(4-(2-amino-8-ethylquinazolin-6-yl)-3,5-dichloropyridin-2-yl)-2,5-dichloro-3-(hydroxymethyl)ben-zenesulfonamide] the figure was 8.82 nM; with `CCc1cc(-c2c(F)cnc(NS(=O)(=O)c3cc(Cl)cnc3OC)c2F)cc2cnc(N)nc12` [Compound 38, N-(4-(2-amino-8-ethylquinazolin-6-yl)-3,5-difluoropyridin-2-yl)-5-chloro-2-methoxypyridine-3-sulfonamide], 7.32 nM; with `CCc1cc(-c2c(Cl)cnc(NS(=O)(=O)c3cc(Cl)cnc3OC)c2Cl)cc2cnc(N)nc12` [Compound 40, N-(4-(2-amino-8-ethylquinazolin-6-yl)-3,5-dichloropyridin-2-yl)-5-chloro-2-methoxypyridine-3-sulfonamide], 8.33 nM.
With `CCc1cc(-c2c(F)ccc(NS(=O)(=O)c3cc(Cl)cnc3OC)c2F)cc2cnc(N[C@H]3CC[C@H](NC)CC3)nc12` [Compound 45, 5-chloro-N-(3-(8-ethyl-2-(((1R,4R)-4-(methylamino)cyclo-hexyl)amino)quina-zolin-6-yl)-2,4-difluorophenyl)-2-methoxypyridine-3-sulfonamide], inhibition was half-maximal at 88.3 nM (IC50).
In the case of `CN[C@H]1CC[C@H](Nc2ncc3cc(-c4c(F)ccc(NS(=O)(=O)c5cc(Cl)cnc5OC)c4F)ccc3n2)CC1` [Compound 48, 5-chloro-N-(2,4-difluoro-3-(2-(((1R,4R)-4-(methylamino)cyclo-hexyl)amino)quina-zolin-6-yl)phenyl)-2-methoxypyridine-3-sulfonamide] it was 3.23 nM.
Turning to `CCc1cc(-c2c(F)ccc(NS(=O)(=O)c3cc(Cl)cnc3OC)c2F)cc2cnc(N[C@H]3CC[C@H](N)CC3)nc12` [Compound 52, N-(3-(2-(((1R,4R)-4-aminocyclohexyl)amino)-8-ethylquinazolin-6-yl)-2,4-difluorophenyl)-5-chloro-2-methoxypyridine-3-sulfonamide], the IC50 was determined as 5.13 nM.
In the case of `CN(C)[C@H]1CC[C@H](Nc2ncc3cc(-c4c(F)ccc(NS(=O)(=O)c5cc(Cl)cc(CO)c5Cl)c4F)ccc3n2)CC1` [Compound 53, 2,5-dichloro-N-(3-(2-(((1R,4R)-4-(dimethylamino)cy-clohexyl)amino)quinazolin-6-yl)-2,4-difluorophenyl)-3-(hydroxymethyl)ben-zenesulfonamide] it was 1.11 nM.
